{"source": "patent US12091425B2", "about": "(AMGEN INC., priority 2016, dated 2024)", "details": "16-membered ring", "note": "“And” between values parts separate entries of the source, which are not always exact repeats. Identical values can stand only once. Like-named read-outs stand apart in the source and are kept apart here.", "data": [{"compound": "O=C1NS(=O)(=O)C[C@H]2C[C@H]2/C=C/[C@H](O)[C@@H]2CC[C@H]2CN2C[C@@]3(CCCc4cc(Cl)ccc43)COc3ccc1cc32", "note": "(mixture of isomers)", "values": [{"measurement": "ring closure, isolated yield", "setting": "from C=C[C@H](O)[C@@H]1CC[C@H]1CN1C[C@@]2(CCCc3cc(Cl)ccc32)COc2ccc(C(=O)NS(=O)(=O)C[C@@H]3C[C@@H]3/C=C/C)cc21, rcm bond, Hoveyda-Grubbs II, DCE, 1.99 mM, 60.0 °C, 6.0 h", "result": 29, "unit": "%"}]}, {"compound": "O=C1NS(=O)(=O)[C@@H]2C[C@H]2C/C=C/[C@H](O)[C@@H]2CC[C@H]2CN2C[C@@]3(CCCc4cc(Cl)ccc43)COc3ccc1cc32", "values": [{"measurement": "ring closure, isolated yield", "setting": "from C=CCC1C[C@H]1S(=O)(=O)NC(=O)c1ccc2c(c1)N(C[C@@H]1CC[C@H]1[C@@H](O)C=C)C[C@@]1(CCCc3cc(Cl)ccc31)CO2, rcm bond, Hoveyda-Grubbs II, AcOH, 0.915 mM, 36.0 h", "result": 55, "unit": "%"}]}, {"compound": "C[C@]12CC[C@H]1CN1C[C@@]3(CCCc4cc(Cl)ccc43)COc3ccc(cc31)C(=O)NS(=O)(=O)CC/C=C\\C[C@@H]2O", "values": [{"measurement": "ring closure, isolated yield", "setting": "from C=CCCS(=O)(=O)NC(=O)c1ccc2c(c1)N(C[C@H]1CC[C@@]1(C)[C@@H](O)CC=C)C[C@@]1(CCCc3cc(Cl)ccc31)CO2, rcm bond, Hoveyda-Grubbs II, toluene, 1.0 mM, 1.5 h", "result": 83, "unit": "%"}]}, {"compound": "O=C1NS(=O)(=O)[C@H]2CCC[C@H](C=C[C@H](O)[C@@H]3CC[C@H]3CN3C[C@@]4(CCCc5cc(Cl)ccc54)COc4ccc1cc43)C2", "note": "(single isomer, unassigned)", "values": [{"measurement": "ring closure, isolated yield", "setting": "from NS(=O)(=O)[C@H]1CCC[C@H](/C=C/[C@H](O)[C@@H]2CC[C@H]2CN2C[C@@]3(CCCc4cc(Cl)ccc43)COc3ccc(C(=O)O)cc32)C1, amide bond, EDC/DMAP, DCM, 2.0 mM, 64.0 h", "result": 20, "unit": "%"}]}, {"compound": "O=C1NS(=O)(=O)NCCC=C[C@H](O)[C@@H]2CC[C@H]2CN2C[C@@]3(CCCc4cc(Cl)ccc43)COc3ccc1cc32", "values": [{"measurement": "ring closure, isolated yield", "setting": "from C=CCCNS(=O)(=O)NC(=O)c1ccc2c(c1)N(C[C@@H]1CC[C@H]1[C@@H](O)C=C)C[C@@]1(CCCc3cc(Cl)ccc31)CO2, rcm bond, Hoveyda-Grubbs II, 1,1-dichloroethane, 1.5 mM, 50.0 °C, 24.0 h", "result": 61, "unit": "%"}]}, {"compound": "O=C1NS(=O)(=O)C2CC(/C=C/[C@H](O)[C@@H]3CC[C@H]3CN3C[C@@]4(CCCc5cc(Cl)ccc54)COc4ccc1cc43)C2", "values": [{"measurement": "ring closure, isolated yield", "setting": "from NS(=O)(=O)C1CC(/C=C/[C@H](O)[C@@H]2CC[C@H]2CN2C[C@@]3(CCCc4cc(Cl)ccc43)COc3ccc(C(=O)O)cc32)C1, amide bond, EDC/DMAP, DCM, 2.0 mM", "result": "3.3% and 22%"}]}, {"compound": "[(1S,3′R,6′R,7′S,8′Z,12′R)-12′-((2R)-2-((tert-butyl(diphenyl)silyl)oxy)propyl)-6-chloro-7′-hydroxy-3,4-dihydro-2h,15′h-spiro[naphthalene-1,22′-[20]oxa[13]thia[1,14]diazatetracyclo[14.7.2.0^3,6.0^19,24]pentacosa[8,16,18,24]tetraen]-15′-one 13′,13′-dioxide and (1S,3′R,6′R,7′S,8′E,12′R)-12′-((2R)-2-((tert-butyl(diphenyl)silyl)oxy)propyl)-6-chloro-7′-hydroxy-3,4-dihydro-2h,15′h-spiro[naphthalene-1,22′-[20]oxa[13]thia[1,14]diazatetracyclo[14.7.2.0^3,6.0^19,24]pentacosa[8,16,18,24]tetraen]-15′-one 13′,13′-dioxide] or [(1S,3′R,6′R,7′S,8′Z,12′S)-12′-((2R)-2-((tert-butyl(diphenyl)silyl)oxy)propyl)-6-chloro-7′-hydroxy-3,4-dihydro-2h,15′h-spiro[naphthalene-1,22′-[20]oxa[13]thia[1,14]diazatetracyclo[14.7.2.0^3,6.0^19,24]pentacosa[8,16,18,24]tetraen]-15′-one 13′,13′-dioxide and (1S,3′R,6′R,7′S,8′E,12′S)-12′-((2R)-2-((tert-butyl(diphenyl)silyl)oxy)propyl)-6-chloro-7′-hydroxy-3,4-dihydro-2h,15′h-spiro[naphthalene-1,22′-[20]oxa[13]thia[1,14]diazatetracyclo[14.7.2.0^3,6.0^19,24]pentacosa[8,16,18,24]tetraen]-15′-one 13′,13′-dioxide]", "values": [{"measurement": "ring closure, isolated yield", "setting": "rcm bond, Hoveyda-Grubbs II, DCM, 1.4 mM, 45.0 °C", "result": 38, "unit": "%"}, {"measurement": "ring closure, isolated yield", "setting": "rcm bond, Hoveyda-Grubbs II, DCM, 1.51 mM, 45.0 °C", "result": 52, "unit": "%"}]}, {"compound": "O=C1NS(=O)(=O)CC2CC2C=C[C@H](O)[C@@H]2CC[C@H]2CN2C[C@@]3(CCCc4cc(Cl)ccc43)COc3ccc1cc32", "note": "(single isomer, unassigned)", "values": [{"measurement": "ring closure, isolated yield", "setting": "from C=C[C@H](O)[C@@H]1CC[C@H]1CN1C[C@@]2(CCCc3cc(Cl)ccc32)COc2ccc(C(=O)NS(=O)(=O)CC3CC3/C=C/C)cc21, rcm bond, Hoveyda-Grubbs II, DCE, 2.0 mM, 60.0 °C, 6.0 h", "result": 12, "unit": "%"}]}, {"compound": "(1S,3′R,6′R,7′S,8′Z,12′S)-12′-((2R)-2-((tert-butyl(diphenyl)silyl)oxy)propyl)-6-chloro-7′-hydroxy-3,4-dihydro-2H,15′H-spiro[naphthalene-1,22′-[20]oxa[13]thia[1,14]diazatetracyclo[14.7.2.0^3,6.0^19,24]pentacosa[8,16,18,24]tetraen]-15′-one 13′,13′-dioxide or (1S,3′R,6′R,7′S,8′Z,12′R)-12′-((2R)-2-((tert-butyl(diphenyl)silyl)oxy)propyl)-6-chloro-7′-hydroxy-3,4-dihydro-2H,15′H-spiro[naphthalene-1,22′-[20]oxa[13]thia[1,14]diazatetracyclo[14.7.2.0^3,6.0^19,24]pentacosa[8,16,18,24]tetraen]-15′-one 13′,13′-dioxide", "values": [{"measurement": "ring closure, isolated yield", "setting": "rcm bond, Hoveyda-Grubbs II (10 mol%), DCM, 1.5 mM, 45.0 °C", "result": 30, "unit": "%"}]}, {"compound": "COc1ccc(CN2CC=CCS(=O)(=O)NC(=O)c3ccc4c(c3)N(C[C@@H]3CC[C@H]3C2=O)C[C@@]2(CCCc3cc(Cl)ccc32)CO4)cc1", "note": "(single isomer, unassigned)", "values": [{"measurement": "ring closure, isolated yield", "setting": "from C=CCN(Cc1ccc(OC)cc1)C(=O)[C@@H]1CC[C@H]1CN1C[C@@]2(CCCc3cc(Cl)ccc32)COc2ccc(C(=O)NS(=O)(=O)CC=C)cc21, rcm bond, Hoveyda-Grubbs II, toluene, 1.0 mM, 110.0 °C, 1.5 h", "result": 51, "unit": "%"}]}, {"compound": "(1S,3′R,6′R,7′S,8′E,12′R)-12′-((2S)-2-((tert-butyl(diphenyl)silyl)oxy)propyl)-6-chloro-7′-hydroxy-3,4-dihydro-2h,15′h-spiro[naphthalene-1,22′-[20]oxa[13]thia[1,14]diazatetracyclo[14.7.2.0^3,6.0^19,24]pentacosa[8,16,18,24]tetraen]-15′-one 13′,13′-dioxide or (1S,3′R,6′R,7′S,8′E,12′S)-12′-((2S)-2-((tert-butyl(diphenyl)silyl)oxy)propyl)-6-chloro-7′-hydroxy-3,4-dihydro-2h,15′h-spiro[naphthalene-1,22′-[20]oxa[13]thia[1,14]diazatetracyclo[14.7.2.0^3,6.0^19,24]pentacosa[8,16,18,24]tetraen]-15′-one 13′,13′-dioxide", "values": [{"measurement": "ring closure, isolated yield", "setting": "rcm bond, Hoveyda-Grubbs II, DCM, 2.7 mM, 45.0 °C", "result": 32, "unit": "%"}]}, {"compound": "C[C@@H]1[C@H]2/C=C/[C@H](O)[C@@H]3CC[C@H]3CN3C[C@@]4(CCCc5cc(Cl)ccc54)COc4ccc(cc43)C(=O)NS(=O)(=O)[C@H]1CCC2", "values": [{"measurement": "ring closure, isolated yield", "setting": "from C[C@H]1[C@H](/C=C/[C@H](O)[C@@H]2CC[C@H]2CN2C[C@@]3(CCCc4cc(Cl)ccc43)COc3ccc(C(=O)O)cc32)CCC[C@H]1S(N)(=O)=O, amide bond, EDC/DMAP, DCM, 2.0 mM", "result": 11.6, "unit": "%"}]}, {"compound": "(1S,3′R,6′R,7′S,8′E,12′S)-12′-((2R)-2-((tert-butyl(diphenyl)silyl)oxy)propyl)-6-chloro-7′-hydroxy-3,4-dihydro-2H,15′H-spiro[naphthalene-1,22′-[20]oxa[13]thia[1,14]diazatetracyclo[14.7.2.0^3,6.0^19,24]pentacosa[8,16,18,24]tetraen]-15′-one 13′,13′-dioxide or (1S,3′R,6′R,7′S,8′E,12′R)-12′-((2R)-2-((tert-butyl(diphenyl)silyl)oxy)propyl)-6-chloro-7′-hydroxy-3,4-dihydro-2H,15′H-spiro[naphthalene-1,22′-[20]oxa[13]thia[1,14]diazatetracyclo[14.7.2.0^3,6.0^19,24]pentacosa[8,16,18,24]tetraen]-15′-one 13′,13′-dioxide", "values": [{"measurement": "ring closure, isolated yield", "setting": "rcm bond, Hoveyda-Grubbs II, DCM, 1.5 mM, 45.0 °C", "result": 20, "unit": "%"}]}, {"compound": "C[C@@H]1CC/C=C/[C@H](O)[C@]2(C)CC[C@H]2CN2C[C@@]3(CCCc4cc(Cl)ccc43)COc3ccc(cc32)C(=O)NS1(=O)=O", "values": [{"measurement": "ring closure, isolated yield", "setting": "from C=CCC[C@@H](C)S(=O)(=O)NC(=O)c1ccc2c(c1)N(C[C@@H]1CC[C@@]1(C)[C@@H](O)C=C)C[C@@]1(CCCc3cc(Cl)ccc31)CO2, rcm bond, Hoveyda-Grubbs II, DCM, 2.0 mM, […]", "result": 12.4, "unit": "%"}]}, {"compound": "CC(C)(C)[Si](C)(C)OC[C@H]1CC=CC[C@H](O)[C@@H]2CC[C@H]2CN2C[C@@]3(CCCc4cc(Cl)ccc43)COc3ccc(cc32)C(=O)NS1(=O)=O", "values": [{"measurement": "ring closure, isolated yield", "setting": "from C=CC[C@H](CO[Si](C)(C)C(C)(C)C)S(=O)(=O)NC(=O)c1ccc2c(c1)N(C[C@@H]1CC[C@H]1[C@@H](O)CC=C)C[C@@]1(CCCc3cc(Cl)ccc31)CO2, rcm bond, Hoveyda-Grubbs II (20 mol%), toluene, 0.72 mM, 106.0 °C, 2.0 h", "result": 85.9, "unit": "%"}]}, {"compound": "C[C@@H]1[C@@H](C)C/C=C/[C@@H](O)[C@@H]2CC[C@H]2CN2C[C@@]3(CCCc4cc(Cl)ccc43)COc3ccc(cc32)C(=O)NS1(=O)=O", "values": [{"measurement": "ring closure, isolated yield", "setting": "from C=CC[C@H](C)[C@@H](C)S(=O)(=O)NC(=O)c1ccc2c(c1)N(C[C@@H]1CC[C@H]1[C@H](O)/C=C/CCC)C[C@@]1(CCCc3cc(Cl)ccc31)CO2, rcm bond, Hoveyda-Grubbs II (10 mol%), DCE, 1.87 mM, 80.0 °C", "result": 12.9, "unit": "%"}]}, {"compound": "CN1CC=CCS(=O)(=O)NC(=O)c2ccc3c(c2)N(C[C@@H]2CC[C@H]2C1=O)C[C@@]1(CCCc2cc(Cl)ccc21)CO3", "note": "(single isomer, unassigned)", "values": [{"measurement": "ring closure, isolated yield", "setting": "from C=CCN(C)C(=O)[C@@H]1CC[C@H]1CN1C[C@@]2(CCCc3cc(Cl)ccc32)COc2ccc(C(=O)NS(=O)(=O)CC=C)cc21, rcm bond, Hoveyda-Grubbs II, toluene, 1.0 mM, 1.5 h", "result": 48, "unit": "%"}]}, {"compound": "COCCN1[C@@H](C)CC=C[C@H](O)[C@@H]2CC[C@H]2CN2C[C@@]3(CCCc4cc(Cl)ccc43)COc3ccc(cc32)C(=O)NS1(=O)=O", "values": [{"measurement": "ring closure, isolated yield", "setting": "from C=CC[C@H](C)N(CCOC)S(=O)(=O)NC(=O)c1ccc2c(c1)N(C[C@@H]1CC[C@H]1[C@@H](O)C=C)C[C@@]1(CCCc3cc(Cl)ccc31)CO2, rcm bond, Hoveyda-Grubbs II, 1,2-dichloroethane, 2.0 mM, 60.0 °C, 18.0 h", "result": 37, "unit": "%"}]}]}
